Measured values: BindingDB's records for doi:10.1021/jm0494974 (Institute, 2005)

The compounds below were run against Tubulin beta-2B chain (UniProt Q6B856) (assay: Binding affinity against tubulin from goat brain relative to colchicine).
Chain of Tubulin beta-2B chain (Q6B856 whole entry): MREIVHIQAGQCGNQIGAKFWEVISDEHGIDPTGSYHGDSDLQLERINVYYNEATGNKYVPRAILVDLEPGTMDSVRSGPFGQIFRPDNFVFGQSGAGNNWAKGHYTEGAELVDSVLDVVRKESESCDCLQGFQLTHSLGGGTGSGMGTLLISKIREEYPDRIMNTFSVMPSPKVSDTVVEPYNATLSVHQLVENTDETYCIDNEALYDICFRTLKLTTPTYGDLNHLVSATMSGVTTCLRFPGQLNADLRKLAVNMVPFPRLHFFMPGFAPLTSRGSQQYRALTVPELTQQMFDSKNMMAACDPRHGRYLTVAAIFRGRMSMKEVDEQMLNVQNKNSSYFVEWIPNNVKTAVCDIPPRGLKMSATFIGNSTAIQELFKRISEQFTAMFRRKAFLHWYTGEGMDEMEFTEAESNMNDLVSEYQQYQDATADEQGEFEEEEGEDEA

Compound | Ki
COc1ccc(S(=O)(=O)Nc2cccc3cc[nH]c23)cc1 [N-(1H-Indol-7-yl)-4-methoxy-benzenesulfonamide] | 14 µM
COc1ccc(S(=O)(=O)Nc2cccc3cc(Cl)[nH]c23)cc1 [N-(2-Chloro-1H-indol-7-yl)-4-methoxy-benzenesulfonamide] | 28 µM
COc1ccc(S(=O)(=O)Nc2cccc3c(Cl)c[nH]c23)cc1 [N-(3-Chloro-1H-indol-7-yl)-4-methoxy-benzenesulfonamide] | 14 µM
COc1ccc(S(=O)(=O)Nc2ccc(Cl)c3cc[nH]c23)cc1 [N-(4-Chloro-1H-indol-7-yl)-4-methoxy-benzenesulfonamide] | 14 µM
COc1ccc(S(=O)(=O)Nc2cc(Cl)cc3cc[nH]c23)cc1 [N-(5-Chloro-1H-indol-7-yl)-4-methoxy-benzenesulfonamide] | 7 µM
